Test results: the supplement of paper PMC11061612

Columns and labels:
RVH-421 (Melanoma) [1] = assay: Bliss excess, mean over the matrix (fraction); higher = more synergy
In short: (§1)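 After 24 hours at 37°C and 5% CO2 in 1536-well plates, cells in DMEM/F12 or RPMI plus 10% FBS received two-drug dose matrices for 72 hours. Viability came from CellTiter-Glo 2.0 luminescence and was scaled as inhibition, anchored at 0 by vehicle wells and at 1 by blank wells. Combination Emax is taken as the second-highest inhibition in the matrix, and Bliss excess as the observed combination effect less EA + EB − EA·EB, with EA and EB the single-agent effects.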

[2] = test system: HT-1197 (Bladder Carcinoma); assay: combination Emax (second highest fraction inhibited in the dose matrix, 72 h); higher = more inhibition; extreme values may be limits of the assay
In short: as §1

[3] = test system: NCI-H2009 (Lung Adenocarcinoma); assay: as above
In short: as §1

[4] = test system: RPMI-8402 (T-Lymphoblastic Leukemia); assay: as above
In short: as §1

RVH-421 (Melanoma) [5] = assay: as above
In short: as §1

DK-MG (Glioblastoma) = assay: as above
In short: as §1

A375 (Melanoma) = assay: as above
In short: as §1

[6] = test system: TK (B-Cell Non-Hodgkin's Lymphoma); assay: as above
In short: as §1

[7] = test system: NCI-H1944 (Lung Adenocarcinoma); assay: as above
In short: as §1

[8] = test system: ATN-1 (T-Lymphoblastic Leukemia); assay: as above
In short: as §1

[9] = test system: Daudi (Burkitt's Lymphoma); assay: as above
In short: as §1

[10] = test system: JJN-3 (Plasma Cell Myeloma); assay: as above
In short: as §1

[11] = test system: SNU-1 (Gastric Carcinoma); assay: as above
In short: as §1

C32 (Melanoma) = assay: as above
In short: as §1

[12] = test system: OCI-M1 (Acute Myeloid Leukemia); assay: as above
In short: as §1

[13] = test system: GRANTA-519 (B-Cell Non-Hodgkin's Lymphoma); assay: as above
In short: as §1

[14] = test system: NCI-H1975 (Lung Adenocarcinoma); assay: as above
In short: as §1

[15] = test system: KNS-62 (Squamous Cell Lung Carcinoma); assay: as above
In short: as §1
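Wherever Bliss excess, mean over the matrix is given: after 72 h of two-drug dosing.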

| Structure (SMILES) | Bliss excess (RVH-421 (Melanoma) [1]) | combination Emax [2] | combination Emax [3] | combination Emax [4] | combination Emax (RVH-421 (Melanoma) [5]) | combination Emax (DK-MG (Glioblastoma)) | combination Emax (A375 (Melanoma)) | combination Emax [6] | combination Emax [7] | combination Emax [8] | combination Emax [9] | combination Emax [10] | combination Emax [11] | combination Emax (C32 (Melanoma)) | combination Emax [12] | combination Emax [13] | combination Emax [14] | combination Emax [15] |
| --- | --- | --- | --- | --- | --- | --- | --- | --- | --- | --- | --- | --- | --- | --- | --- | --- | --- | --- |
| CN(C)CCCOc1ccc(-c2ccc3ncc4c(c3c2)n(C2CCOCC2)c(=O)n4C)cn1 [AZD0156] + C=CCn1c(=O)c2cnc(Nc3ccc(N4CCN(C)CC4)cc3)nc2n1-c1cccc(C(C)(C)O)n1 [AZD1775] (first compound max 1 µM, partner max 1 µM) | -0.0576 | 0.486 | 0.557 | 1 | 0.161 | 0.331 | 0.535 | 0.945 | 0.618 | 1 | 0.781 | 0.661 | 0.623 | 0.442 | 0.869 | 0.816 | 0.356 | 0.185 |
| Cc1c2c(nn1C)CSCc1cc(n(C)n1)CSc1cc(c3ccccc3c1)OCCCc1c(C(=O)O)n(C)c3c-2c(Cl)ccc13 [AZD5991] + C[C@@H]1COCCN1C2=NC(=NC(=C2)C3(CC3)[S@](=N)(=O)C)C4=C5C=CNC5=NC=C4 [AZD6738] (first compound max 1 µM, 7x7, partner max 10 µM) | 0.013 | 0.466 | 0.466 | 0.999 | 0.265 | 0.707 | 0.893 | 0.895 | 0.928 | 1 | 0.874 | 1 | 0.794 | 0.756 | 0.973 | 0.906 | 0.664 | 0.491 |
| C[C@@H]1COCCN1c1cc(C2([S@](C)(=N)=O)CC2)nc(-c2ccnc3[nH]ccc23)n1 [AZD6738] + O=C(c1cc(Cc2n[nH]c(=O)c3ccccc23)ccc1F)N1CCN(C(=O)C2CC2)CC1 [Olaparib] (first compound max 10 µM, 7x7, partner max 10 µM) | -0.0324 | 0.393 | 0.478 | 1 | 0.215 | 0.316 | 0.66 | 0.878 | 0.745 | 1 | 0.828 | 0.584 | 0.777 | 0.694 | 0.982 | 0.754 | 0.354 | 0.413 |
| COc1cccc(OCCCN)c1-c1cc(Nc2cnc(C#N)cn2)n[nH]1 [Prexasertib] + C[C@@H]1COCCN1C2=NC(=NC(=C2)C3(CC3)[S@](=N)(=O)C)C4=C5C=CNC5=NC=C4 [AZD6738] (first compound max 1 µM, 7x7, partner max 10 µM) | -0.0225 | 0.603 | 0.522 | 1 | 0.244 | 0.216 | 0.853 | 0.901 | 0.789 | 1 | 0.939 | 0.971 | 0.888 | 0.735 | 0.956 | 0.856 | 0.426 | 0.555 |
| CCN(CCO)CCCOc1ccc2c(Nc3cc(CC(=O)Nc4cccc(F)c4)[nH]n3)ncnc2c1 [AZD2811] + C[C@@H]1COCCN1C2=NC(=NC(=C2)C3(CC3)[S@](=N)(=O)C)C4=C5C=CNC5=NC=C4 [AZD6738] (first compound max 1 µM, 7x7, partner max 10 µM) | -0.0815 | 0.424 | 0.431 | 1 | 0.172 | 0.308 | 0.625 | 0.901 | 0.733 | 1 | 0.851 | 0.566 | 0.73 | 0.613 | 0.969 | 0.782 | 0.483 | 0.417 |
| C=CCn1c(=O)c2cnc(Nc3ccc(N4CCN(C)CC4)cc3)nc2n1-c1cccc(C(C)(C)O)n1 [AZD1775] + O=C(c1cc(Cc2n[nH]c(=O)c3ccccc23)ccc1F)N1CCN(C(=O)C2CC2)CC1 [Olaparib] (first compound max 1 µM, partner max 10 µM) | -0.105 | 0.468 | 0.752 | 1 | 0.253 | 0.32 | 0.476 | 0.898 | 0.41 | 1 | 0.84 | 0.645 | 0.569 | 0.438 | 0.869 | 0.804 | 0.262 | 0.225 |
| CC1(C)CCC(CN2CCN(c3ccc(C(=O)NS(=O)(=O)c4ccc(NCC5CCOCC5)c([N+](=O)[O-])c4)c(Oc4cnc5[nH]ccc5c4)c3)CC2)=C(c2ccc(Cl)cc2)C1 [Venetoclax] + COc1cc(Nc2ncc3c(n2)-c2ccc(Cl)cc2C(c2c(F)cccc2OC)=NC3)ccc1C(=O)O [Alisertib] (first compound max 1 µM, 7x7, partner max 10 µM) | -0.058 | 0.163 | 0.5 | 0.718 | 0.0752 | 0.443 | 0.466 | 1 | 0.544 | 0.901 | 0.787 | 0.939 | 0.327 | 0.487 | 0.815 | 0.969 | 0.469 | 0.283 |
| CN(C)CCCOc1ccc(-c2ccc3ncc4c(c3c2)n(C2CCOCC2)c(=O)n4C)cn1 [AZD0156] + C[C@@H]1COCCN1C2=NC(=NC(=C2)C3(CC3)[S@](=N)(=O)C)C4=C5C=CNC5=NC=C4 [AZD6738] (first compound max 1 µM, 7x7, partner max 10 µM) | -0.0581 | 0.526 | 0.459 | 0.983 | 0.18 | 0.242 | 0.815 | 0.907 | 0.868 | 1 | 0.848 | 0.938 | 0.769 | 0.666 | 0.982 | 0.82 | 0.407 | 0.485 |
| C=CCn1c(=O)c2cnc(Nc3ccc(N4CCN(C)CC4)cc3)nc2n1-c1cccc(C(C)(C)O)n1 [AZD1775] + C[C@@H]1COCCN1C2=NC(=NC(=C2)C3(CC3)[S@](=N)(=O)C)C4=C5C=CNC5=NC=C4 [AZD6738] (first compound max 1 µM, partner max 10 µM) | -0.0495 | 0.592 | 0.799 | 1 | 0.213 | 0.42 | 0.766 | 0.94 | 0.852 | 1 | 0.901 | 0.832 | 0.817 | 0.73 | 0.969 | 0.826 | 0.477 | 0.565 |
| CC1(C)CCC(CN2CCN(c3ccc(C(=O)NS(=O)(=O)c4ccc(NCC5CCOCC5)c([N+](=O)[O-])c4)c(Oc4cnc5[nH]ccc5c4)c3)CC2)=C(c2ccc(Cl)cc2)C1 [Venetoclax] + C=CCn1c(=O)c2cnc(Nc3ccc(N4CCN(C)CC4)cc3)nc2n1-c1cccc(C(C)(C)O)n1 [AZD1775] (first compound max 1 µM, partner max 1 µM) | -0.0875 | 0.487 | 0.637 | 1 | 0.183 | 0.452 | 0.505 | 1 | 0.728 | 0.977 | 0.663 | 0.693 | 0.769 | 0.546 | 0.912 | 1 | 0.393 | 0.544 |
| Cc1c2c(nn1C)CSCc1cc(n(C)n1)CSc1cc(c3ccccc3c1)OCCCc1c(C(=O)O)n(C)c3c-2c(Cl)ccc13 [AZD5991] + Cn1cnc2c(F)c(Nc3ccc(Br)cc3Cl)c(C(=O)NOCCO)cc21 [Selumetinib] (first compound max 1 µM, 7x7, partner max 3 µM) | -0.0194 | 0.321 | 0.526 | 0.692 | 0.449 | 0.689 | 0.895 | 0.114 | 0.304 | 0.888 | 0.394 | 1 | 0.605 | 1 | 0.618 | 0.106 | 0.816 | 0.339 |
| CC1(C)CCC(CN2CCN(c3ccc(C(=O)NS(=O)(=O)c4ccc(NCC5CCOCC5)c([N+](=O)[O-])c4)c(Oc4cnc5[nH]ccc5c4)c3)CC2)=C(c2ccc(Cl)cc2)C1 [Venetoclax] + Cn1cnc2c(F)c(Nc3ccc(Br)cc3Cl)c(C(=O)NOCCO)cc21 [Selumetinib] (first compound max 1 µM, 7x7, partner max 3 µM) | -0.0317 | 0.254 | 0.184 | 0.084 | 0.385 | 0.362 | 0.686 | 0.981 | 0.239 | 0.137 | 0.115 | 0.462 | 0.221 | 0.941 | 0.483 | 0.323 | 0.28 | 0.253 |
| Cc1c2c(nn1C)CSCc1cc(n(C)n1)CSc1cc(c3ccccc3c1)OCCCc1c(C(=O)O)n(C)c3c-2c(Cl)ccc13 [AZD5991] + C=CCn1c(=O)c2cnc(Nc3ccc(N4CCN(C)CC4)cc3)nc2n1-c1cccc(C(C)(C)O)n1 [AZD1775] (first compound max 1 µM, partner max 1 µM) | 0.0088 | 0.593 | 0.75 | 1 | 0.248 | 0.821 | 0.818 | 0.927 | 0.737 | 1 | 0.706 | 1 | 0.6 | 0.568 | 0.921 | 0.863 | 0.677 | 0.223 |
| COc1cccc(OCCCN)c1-c1cc(Nc2cnc(C#N)cn2)n[nH]1 [Prexasertib] + C=CCn1c(=O)c2cnc(Nc3ccc(N4CCN(C)CC4)cc3)nc2n1-c1cccc(C(C)(C)O)n1 [AZD1775] (first compound max 1 µM, partner max 1 µM) | -0.0524 | 0.646 | 0.849 | 1 | 0.341 | 0.387 | 0.952 | 0.882 | 0.815 | 1 | 0.968 | 0.985 | 0.916 | 0.721 | 0.969 | 0.867 | 0.516 | 0.684 |
